Laboratory results taken from US20110098216A1 (REGEN THERAPEUTICS PLC, priority 2009, published 2011).

Key:
[1] = system: Chinese hamster ovary (CHO) cells; test: Chromosome aberration assay in CHO cells; type: cell-based; details: preliminary toxicity assay, any dose level up to 5000 μg/mL, all three exposure groups
Experimental: A preliminary toxicity test was performed to establish the dose range for the chromosome aberration assay. The chromosome aberration assay was used to evaluate the clastogenic potential of the test article. The dosing solution concentrations were adjusted to compensate for the protein content (13.6%) of the test article using a correction factor of 7.35.
In order to evaluate the toxic effect of lactose alone on the test system, α-Lactose monohydrate was tested as reference article at the same percentage of lactose as in the highest test article dose formulation in the preliminary toxicity assay. McCoy's media (complete medium for the non-activated test system and serum-free medium for the S9-activated test system) were the solvents of choice based on the solubility of the test article and compatibility with the target cells. […] The reference article was soluble in McCoy's complete and serum-free media at the dose level tested in the preliminary toxicity assay.
In the preliminary toxicity assay, the maximum dose tested was 5000 μg/mL. […] The reference article was soluble in complete medium and serum-free medium at 31.76 mg/mL at the beginning and conclusion of the treatment period. […]

[2] = Solubility and precipitation in water / on plates (mutation assay); type: physicochemical; details: initial toxicity-mutation assay with lactose, up to 31765 μg per plate
Experimental: (§1) The dose levels tested were 1.5, 5.0, 15, 50, 150, 500, 1500 and 5000 μg per plate.
(§2) The dose levels tested were 50, 150, 500, 1500 and 5000 μg per plate.

[3] = system: male and female ICR mice; details: mouse, in vivo
Experimental: (§3) The assay was performed in two phases. The first phase, pilot toxicity study, was designed to assess toxicity of the test article and set dose levels for the definitive study. The second phase, the definitive micronucleus study, was designed to evaluate the potential of the test article to increase the incidence of micronucleated polychromatic erythrocytes in bone marrow of male and female ICR mice.
(§4) Phosphate buffered saline (PBS) was used as the test article vehicle. The test article was a workable suspension in PBS at 100 mg/mL, the maximum concentration prepared and tested in this study. […] In both phases of the study, test or control articles were administered at a dose volume of 20 mL/kg body weight via a single oral gavage dose.
(§5) The definitive micronucleus study consisted of seven groups, each containing 5 male and female ICR mice. […] An additional group of 5 male and 5 female ICR mice were treated with 2000 mg/kg to be used as possible replacement animals for the high dose in the event of mortality. […] Bone marrow cells [polychromatic erythrocytes (2000 PCEs/animal)] collected 24 and 48 hours after treatment were examined microscopically for the presence of micronuclei.

[4] = system: Salmonella typhimurium tester strains TA98, TA100, TA1535 and TA1537 and Escherichia coli tester strain WP2 uvrA; test: Bacterial Reverse Mutation Assay (plate incorporation method); details: initial toxicity-mutation assay with lactose, maximum dose 31765 μg per plate
Experimental: as §1
Based on the findings of the initial toxicity-mutation assay, the maximum dose plated in the confirmatory mutagenicity assay was 5000 μg per plate.
as §2

[5] = system: polychromatic erythrocytes in bone marrow of male and female ICR mice; details: definitive study, male and female mice, 24 or 48 h after dose; CP 50 mg/kg; Kastenbaum-Bowman Tables
Experimental: as §3, §4, §5

Compound	substantial toxicity (at least 50% cell growth inhibition relative to solvent control) [1]	precipitate [2]	mortality and clinical signs [3]	toxicity [4]	incidence of micronucleated polychromatic erythrocytes relative to vehicle control [5]
O.OC[C@H]1O[C@@H](O[C@H]2[C@H](O)[C@@H](O)[C@@H](O)O[C@@H]2CO)[C@H](O)[C@@H](O)[C@H]1O [α-Lactose monohydrate]	not observed	Neither precipitate	no clinical signs	Neither precipitate nor appreciable toxicity	
O=P1(N(CCCl)CCCl)NCCCO1 (centres unmarked) [CP, cyclophosphamide monohydrate]					significant increase
